Data as given in patent US20060127329A1, “Tartar control oral care composition containing extract of magnolia” (Colgate-Palmolive Company, priority 2004, published 2006).

tested on: representative oral bacteria S. mutans, F. nucleatum, V. parvula, A. naslundii, P. gingivitis; test: in vitro test Minimal Inhibitory Concentration (MIC); assay type: cell-based; settings: no numbers given
Source text: The compositions of the present invention comprise at least one active compound found in an extract of magnolia. As referred to here, such an “extract” of magnolia is an extract from dried cortex, or bark, of a plant from the Magnoliaceae family, such as Magnolia officinalis, (hereinafter “magnolia”) or a synthetic or semi-synthetic equivalent of such an extract or an active component thereof. […] In other embodiments, the antibacterial ingredient comprises an extract of magnolia. […] It should be noted that any plant from the Magnoliaceae family is suitable for the present invention and may be used in alternate embodiments, preferably such that the extract comprises an antimicrobially effective concentration of a compound selected from the group consisting of magnolol, honokiol, tetrahydromagnolol, tetrahydrohonokiol, and mixtures thereof.

| Structure (SMILES) | bactericidal properties against representative oral bacteria |
| --- | --- |
| C=CCc1ccc(O)c(-c2ccc(O)c(CC=C)c2)c1 [honokiol] | demonstrated bactericidal properties |
| CCCc1ccc(O)c(-c2cc(CCC)ccc2O)c1 [tetrahydromagnolol] | demonstrated bactericidal properties |
| CCCc1ccc(O)c(-c2ccc(O)c(CCC)c2)c1 [tetrahydrohonokiol] | demonstrated bactericidal properties |
| C=CCc1ccc(O)c(-c2cc(CC=C)ccc2O)c1 [magnolol] | demonstrated bactericidal properties |
